Literature values, collected in US20120183587A1, “FLAVONOL COMPOSITIONS” (priority 2011, published 2012).

Details: Guglen et al., Eur. J. Clin. Pharmacol. 1975

extent of absorption from an oral dose: about 1%
Structure (SMILES): O=c1c(O)c(-c2ccc(O)c(O)c2)oc2cc(O)cc(O)c12 [quercetin, 3,3′,4′,5,7-pentahydroxy-2-phenylchromen-4-one]
